According to ChEMBL document CHEMBL4699466, “Isolation, reactivity, pharmacological activities and total synthesis of hispanolone and structurally related diterpenes from Labiatae plants” (Bioorg Med Chem Lett, 2020):
Each block holds one compound with its values, some of them ahead of it.

Assays:
RAW264.7 = assay: Antiinflammatory activity against mouse RAW264.7 cells assessed as inhibition of LPS-induced nitrite accumulation at 10 uM preincubated for 30 mins followed by LPS-stimulation and measured after 24 hrs by Griess reagent based assay relative to control; format: functional; design: scale not given: the % may be the effect or the level left; details: time 24.5 hrs
[1] = Metal chelating activity of the compound assessed as Fe2+-compound complex formation at 1 mg/ml incubated for 10 mins in presence of ferrozine solution relative to control
[2] = Metal chelating activity of the compound assessed as Fe2+-compound complex formation at 0.250 mg/ml incubated for 10 mins in presence of ferrozine solution relative to control; details: dose 0.25 mg/ml
Mus musculus = species: Mus musculus; assay: cells; details: Swiss-Taconi
Description: Antiinflammatory activity in Swiss-Taconi mouse assessed as reduction in TPA-induced ear edema

[3] = target: 11-beta-hydroxysteroid dehydrogenase 1 (Homo sapiens) (UniProt P28845); assay: Inhibition of human 11beta-HSD1 expressed in HEK-293 cells assessed as residual activity at […] using radiolabeled cortisone as substrate by scintillation counting; format: cell-based; details: HEK293
[4] = Metal chelating activity of the compound assessed as Fe2+-compound complex formation at 0.500 mg/ml incubated for 10 mins in presence of ferrozine solution relative to control; details: dose 0.5 mg/ml
[5] = Antagonist activity at PAF receptor in rabbit platelet membrane assessed as inhibition of [3H]-PAF binding to PAF receptor; format: cell membranes, Oryctolagus cuniculus, Cell membrane
Neutrophil [6] = assay: Antiinflammatory activity in human neutrophils assessed as inhibition of fMLF/cytochalasin B-induced superoxide anion generation; format: functional, cell-based
Sulfotransferase 1E1 = target: T1, Sulfotransferase 1E1 (Homo sapiens, UniProt P49888); assay: Inhibition of estrogen sulfotransferase in human liver cytosol incubated for 30 mins in presence of [3H]-estradiol and adenosine -3'-phosphate 5'-phosphosulfate by liquid scintillation counting method; format: subcellular
T1 sequence (P49888 whole entry): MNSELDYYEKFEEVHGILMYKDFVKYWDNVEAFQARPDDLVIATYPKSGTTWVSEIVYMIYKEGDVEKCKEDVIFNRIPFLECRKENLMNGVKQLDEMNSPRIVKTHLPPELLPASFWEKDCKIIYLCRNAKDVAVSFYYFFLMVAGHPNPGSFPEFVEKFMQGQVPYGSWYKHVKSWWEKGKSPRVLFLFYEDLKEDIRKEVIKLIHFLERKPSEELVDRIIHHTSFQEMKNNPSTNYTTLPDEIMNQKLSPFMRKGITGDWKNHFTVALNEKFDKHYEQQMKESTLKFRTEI

Neutrophil [7] = assay: Antiinflammatory activity in human neutrophils assessed as inhibition of elastase release; format: functional, cell-based
Neutrophil [8] = assay: Antiinflammatory activity in human neutrophils assessed as inhibition of fMLF/cytochalasin B-induced superoxide anion generation at 10 uM relative to control; format: functional; design: scale not given: the % may be the effect or the level left
Acetylcholinesterase = target: T2, Acetylcholinesterase (Rattus norvegicus, UniProt P37136); assay: Inhibition of Sprague-Dawley rat acetylcholinesterase using acetylthiocholine iodide as substrate measured at 30 secs for 5 mins by Ellman's method
T2 sequence (P37136 whole entry): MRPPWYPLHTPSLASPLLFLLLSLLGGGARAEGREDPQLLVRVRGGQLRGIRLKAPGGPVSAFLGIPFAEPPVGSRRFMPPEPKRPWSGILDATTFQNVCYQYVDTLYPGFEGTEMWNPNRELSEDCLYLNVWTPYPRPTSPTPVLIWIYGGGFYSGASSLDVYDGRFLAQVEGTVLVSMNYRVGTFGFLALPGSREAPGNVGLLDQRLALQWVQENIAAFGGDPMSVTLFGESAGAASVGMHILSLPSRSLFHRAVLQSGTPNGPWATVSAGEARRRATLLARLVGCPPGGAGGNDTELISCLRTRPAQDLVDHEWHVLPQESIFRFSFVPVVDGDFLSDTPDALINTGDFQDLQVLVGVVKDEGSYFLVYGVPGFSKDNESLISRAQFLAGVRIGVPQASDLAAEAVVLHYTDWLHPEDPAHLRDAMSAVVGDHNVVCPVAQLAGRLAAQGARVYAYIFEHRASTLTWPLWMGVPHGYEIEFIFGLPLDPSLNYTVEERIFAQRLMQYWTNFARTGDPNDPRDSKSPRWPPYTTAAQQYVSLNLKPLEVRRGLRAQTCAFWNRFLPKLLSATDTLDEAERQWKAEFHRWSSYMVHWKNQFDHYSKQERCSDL

Neutrophil [9] = assay: Antiinflammatory activity in human neutrophils assessed as inhibition of elastase release at 10 uM relative to control; format: functional; design: scale not given: the % may be the effect or the level left

11-beta-hydroxysteroid dehydrogenase 1 (Homo sapiens), sequence (P28845 whole entry, looked up): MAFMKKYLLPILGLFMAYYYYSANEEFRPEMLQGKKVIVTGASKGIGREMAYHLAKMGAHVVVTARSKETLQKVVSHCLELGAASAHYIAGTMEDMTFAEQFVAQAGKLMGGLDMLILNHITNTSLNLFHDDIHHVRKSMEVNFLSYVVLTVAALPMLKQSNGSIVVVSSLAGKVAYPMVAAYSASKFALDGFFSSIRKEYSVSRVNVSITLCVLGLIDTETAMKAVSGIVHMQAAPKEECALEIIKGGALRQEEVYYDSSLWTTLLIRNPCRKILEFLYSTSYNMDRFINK

Structure (SMILES): CC1=C(CCC2=CC(=O)OC2O)[C@@]2(C)CCCC(C)(C)[C@@H]2CC1=O (some centres undefined)
Activity (RAW264.7): 84.1%

Activity [1]: 97.3%
Activity [2]: 96%
IC50 (Mus musculus): 1.05 µM
Activity [3]: 20%
Activity [4]: 97%
Structure (SMILES): C[C@@H]1C(=O)C[C@H]2C(C)(C)CCC[C@]2(C)[C@@]1(O)CCc1ccoc1

IC50 [5]: 4 µM
Structure (SMILES): C[C@@H]1C(=O)C[C@H]2C(C)(C)CCC[C@]2(C)[C@@]12CC[C@]1(C=COC1)O2

Structure (SMILES): CC1=C(CCc2ccoc2)[C@@]2(C)CCCC(C)(C)[C@@H]2CC1=O
IC50 (Neutrophil [6]): 8.48 µM
IC50 (Sulfotransferase 1E1): 19.8 µM
IC50 (Neutrophil [7]): 5.42 µM
Activity (Neutrophil [8]): 58.43%
IC50 (Acetylcholinesterase): 38.5 µM
Activity (Neutrophil [9]): 70.06%

Structure (SMILES): CCC1=C(Cc2ccoc2)C(=O)[C@@]2(C)CCCC(C)(C)[C@@H]2C1
Activity (RAW264.7): 35.53%
